Source: US20120101093A1, “SUBSTITUTED IMIDAZO[1,2-A]PYRIDINE DERIVATIVES, PHARMACEUTICAL COMPOSITIONS, AND METHODS OF USE AS BETA-SECRETASE INHIBITORS” (HIGH POINT PHARMACEUTICALS, LLC, priority 2009, published 2012)

Target: T1, BACE-1 enzyme (Homo sapiens, UniProt P56817)
T1 construct: purchased R & D Systems 931AS
Assay: BACE Fluorescence Resonance Energy Transfer (FRET) Assay
Type: biochemical
Settings: pH 4-4.5, 30 min pre-incubation, about 1.5 hours reaction
Protocol: BACE Fluorescence Resonance Energy Transfer (FRET) Assay
In the following assay, the proteolytic activity of BACE is measured by observing cleavage of a fluorescent group from a peptide substrate containing a rhodamine fluorescent donor and a quenching acceptor.
The inhibitory activity of compounds of Formula (I) may be compared to a statine derived control inhibitor STA200 (MP Biomedical Cat. #STA-200). The cleavage reaction occurs when a BACE-1 substrate (Invitrogen, Cat. #P2986) was added to a reaction mixture containing BACE-1 enzyme (R & D Systems, Cat. #931AS) and allowed to proceed for about 1.5 hours. Fluorescence, used as a marker of BACE activity, is monitored using 540 nm excitation and 585 nm emission wavelengths (Envision, Perkin Elmer).
A typical assay reaction contains BACE-1 enzyme—in assay buffer (50 mM sodium acetate, pH 4-4.5, 0.01% CHAPS (3-[(3-Cholamidopropyl)dimethylammonio]-1-propanesulfonate), 0.0125% TritonX-100, 0.006% EDTA) which is pre-incubated for 30 minutes with test compound in 7.5% DMSO. The reaction is initiated with the addition of BACE-1 substrate in assay buffer and allowed to proceed for about 1.5 hours at room temperature. Assays are conducted in black 384-well microtiter plates and scanned at room temperature using 540 nm excitation and 585 nm emission wavelengths.
In some instances, the percent inhibition at a given concentration is reported instead of the IC50.

T1 sequence (P56817 46-457 limits assumed): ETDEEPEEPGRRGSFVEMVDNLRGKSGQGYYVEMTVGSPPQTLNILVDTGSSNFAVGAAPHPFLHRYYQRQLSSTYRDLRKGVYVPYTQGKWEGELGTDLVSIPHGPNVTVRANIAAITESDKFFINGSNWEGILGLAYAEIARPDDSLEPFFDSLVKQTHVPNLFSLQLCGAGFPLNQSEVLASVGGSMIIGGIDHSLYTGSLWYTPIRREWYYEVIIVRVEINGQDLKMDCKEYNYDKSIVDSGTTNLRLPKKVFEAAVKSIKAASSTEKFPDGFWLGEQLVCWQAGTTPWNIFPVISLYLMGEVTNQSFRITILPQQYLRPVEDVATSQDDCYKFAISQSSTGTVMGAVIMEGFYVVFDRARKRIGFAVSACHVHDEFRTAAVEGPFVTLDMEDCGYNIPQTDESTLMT

IC50 [µM]	Compound
0.51	COc1cccc2nc(C(=O)Nc3nc4cc(-c5cccc(C(F)(F)F)c5)ccc4[nH]3)cn12 [Example 4, 5-Methoxy-imidazo[1,2-a]pyridine-2-carboxylic acid[5-(3-trifluoromethyl-phenyl)-1H-benzoimidazol-2-yl]-amide]
0.49	Cc1c(N2CC[C@@H](O)C2)ccc2nc(C(=O)Nc3nc4cc(-c5cc(F)cc(Cl)c5)ccc4[nH]3)cn12 [Example 5, 6-((R)-3-Hydroxy-pyrrolidin-1-yl)-5-methyl-imidazo[1,2-a]pyridine-2-carboxylic acid [5-(3-chloro-5-fluoro-phenyl)-1H-benzoimidazol-2-yl]-amide]
0.25	Cc1c(C#CC(C)(C)O)ccc2nc(C(=O)Nc3nc4cc(-c5cccc(C(F)(F)F)c5)ccc4[nH]3)cn12 [Example 6, 6-(3-Hydroxy-3-methyl-but-1-ynyl)-5-methyl-imidazo[1,2-a]pyridine-2-carboxylic acid [5-(3-trifluoromethyl-phenyl)-1H-benzoimidazol-2-yl]-amide]
0.1	Cc1c(OCCO)ccc2nc(C(=O)Nc3nc4cc(-c5cccc(C(F)(F)F)c5)ccc4[nH]3)cn12 [Example 7, 6-(2-Hydroxy-ethoxy)-5-methyl-imidazo[1,2-a]pyridine-2-carboxylic acid [5-(3-trifluoromethyl-phenyl)-1H-benzoimidazol-2-yl]-amide]
0.2	O=C(Nc1nc2cc(-c3cc(F)cc(Cl)c3)ccc2[nH]1)c1cn2c(N3CC[C@@H](O)C3)cccc2n1 [Example 8, 5-((R)-3-Hydroxy-pyrrolidin-1-yl)-imidazo[1,2-a]pyridine-2-carboxylic acid [5-(3-chloro-5-fluoro-phenyl)-1H-benzoimidazol-2-yl]-amide]
0.3	O=C(Nc1nc2cc(-c3cccc(Cl)c3)ccc2[nH]1)c1cn2cc(OCCO)ccc2n1 [Example 9, 6-(2-Hydroxy-ethoxy)-imidazo[1,2-a]pyridine-2-carboxylic acid [5-(3-chloro-phenyl)-1H-benzoimidazol-2-yl]-amide]
0.08	O=C(Nc1nc2cc(OCc3ccccc3)ccc2[nH]1)c1cn2cc(Cl)ccc2n1 [Example 13, 6-Chloro-imidazo[1,2-a]pyridine-2-carboxylic acid (5-benzyloxy-1H-benzoimidazol-2-yl)-amide]
0.12	Cc1cccn2cc(C(=O)Nc3nc4cc(OCc5ccccc5)ccc4[nH]3)nc12 [Example 14, 8-Methyl-imidazo[1,2-a]pyridine-2-carboxylic acid (5-benzyloxy-1H-benzoimidazol-2-yl)-amide]
0.23	O=C(Nc1nc2cc(OCc3ccc(Cl)cc3Cl)ccc2[nH]1)c1cn2cc(Cl)ccc2n1 [Example 15, 6-Chloro-imidazo[1,2-a]pyridine-2-carboxylic acid [5-(2,4-dichloro-benzyloxy)-1H-benzoimidazol-2-yl]-amide]
0.17	O=C(Nc1nc2cc(OCc3cc(F)cc(F)c3)ccc2[nH]1)c1cn2cc(Cl)ccc2n1 [Example 16, 6-Chloro-imidazo[1,2-a]pyridine-2-carboxylic acid [5-(3,5-difluoro-benzyloxy)-1H-benzoimidazol-2-yl]-amide]
0.12	O=C(Nc1nc2cc(OCc3ccc(C(F)(F)F)cc3)ccc2[nH]1)c1cn2ccccc2n1 [Example 17, Imidazo[1,2-a]pyridine-2-carboxylic acid [5-(4-trifluoromethyl-benzyloxy)-1H-benzoimidazol-2-yl]-amide]
0.23	O=C(Nc1nc2cc(OCc3cc(F)cc(Cl)c3)ccc2[nH]1)c1cn2cc(Cl)ccc2n1 [Example 19, 6-Chloro-imidazo[1,2-a]pyridine-2-carboxylic acid [5-(3-chloro-5-fluoro-benzyloxy)-1H-benzoimidazol-2-yl]-amide]
0.25	O=C(Nc1nc2cc(OCc3ccc(Cl)c(Cl)c3)ccc2[nH]1)c1cn2cc(Cl)ccc2n1 [Example 20, 6-Chloro-imidazo[1,2-a]pyridine-2-carboxylic acid [5-(3,4-dichloro-benzyloxy)-1H-benzoimidazol-2-yl]-amide]
0.14	O=C(Nc1nc2cc(OCc3ccc(C(F)(F)F)cc3)ccc2[nH]1)c1cn2cc(Cl)ccc2n1 [Example 21, 6-Chloro-imidazo[1,2-a]pyridine-2-carboxylic acid [5-(4-trifluoromethyl-benzyloxy)-1H-benzoimidazol-2-yl]-amide]
0.19	Cc1cccn2cc(C(=O)Nc3nc4cc(OCc5ccc(C(F)(F)F)cc5)ccc4[nH]3)nc12 [Example 22, 8-Methyl-imidazo[1,2-a]pyridine-2-carboxylic acid [5-(4-trifluoromethyl-benzyloxy)-1H-benzoimidazol-2-yl]-amide]
0.13	O=C(Nc1nc2cc(OCc3ccc(F)cc3F)ccc2[nH]1)c1cn2cc(Cl)ccc2n1 [Example 24, 6-Chloro-imidazo[1,2-a]pyridine-2-carboxylic acid [5-(2,4-difluoro-benzyloxy)-1H-benzoimidazol-2-yl]-amide]

IC50 [µM]	Compound
0.1	COc1cccc(-c2ccc3[nH]c(NC(=O)c4cn5c(C)cccc5n4)nc3c2)c1 [Example 25, 5-Methyl-imidazo[1,2-a]pyridine-2-carboxylic acid [5-(3-methoxy-phenyl)-1H-benzoimidazol-2-yl]-amide]
1.29	Cc1cccn2cc(C(=O)Nc3nc4cc(-c5ccccc5)ccc4[nH]3)nc12 [Example 29, 8-Methyl-imidazo[1,2-a]pyridine-2-carboxylic acid (5-phenyl-1H-benzoimidazol-2-yl)-amide]
4.15	Cc1cccc2nc(C(=O)Nc3nc4cc(OC5CCCC5)ccc4[nH]3)cn12 [Example 30, 5-Methyl-imidazo[1,2-a]pyridine-2-carboxylic acid (5-cyclopentyloxy-1H-benzoimidazol-2-yl)-amide]
2.69	Cc1cccn2cc(C(=O)Nc3nc4cc(OC5CCCC5)ccc4[nH]3)nc12 [Example 31, 8-Methyl-imidazo[1,2-a]pyridine-2-carboxylic acid (5-cyclopentyloxy-1H-benzoimidazol-2-yl)-amide]
1.36	Cc1cccn2cc(C(=O)Nc3nc4cc(OCc5ccc(OC(F)(F)F)cc5)ccc4[nH]3)nc12 [Example 33, 8-Methyl-imidazo[1,2-a]pyridine-2-carboxylic acid [5-(4-trifluoromethoxy-benzyloxy)-1H-benzoimidazol-2-yl]-amide]
2.53	O=C(Nc1nc2cc(-c3cccc(C(F)(F)F)c3)ccc2[nH]1)c1cn2cc(Cl)ccc2n1 [Example 34, 6-Chloro-imidazo[1,2-a]pyridine-2-carboxylic acid [5-(3-trifluoromethyl-phenyl)-1H-benzoimidazol-2-yl]-amide]
1.46	Cc1cccc2nc(C(=O)Nc3nc4cc(N5CCC(c6ccccc6)CC5)ccc4[nH]3)cn12 [Example 36, 5-Methyl-imidazo[1,2-a]pyridine-2-carboxylic acid [5-(4-phenyl-piperidin-1-yl)-1H-benzoimidazol-2-yl]-amide]
1.8	Cc1cccn2cc(C(=O)Nc3nc4cc(N5CCC(c6ccccc6)CC5)ccc4[nH]3)nc12 [Example 37, 8-Methyl-imidazo[1,2-a]pyridine-2-carboxylic acid [5-(4-phenyl-piperidin-1-yl)-1H-benzoimidazol-2-yl]-amide]
3.14	Cc1cccc2nc(C(=O)Nc3nc4cc(-c5ccncc5)ccc4[nH]3)cn12 [Example 38, 5-Methyl-imidazo[1,2-a]pyridine-2-carboxylic acid (5-pyridin-4-yl-1H-benzoimidazol-2-yl)-amide]
1.32	COCCCOc1cccc(-c2ccc3[nH]c(NC(=O)c4cn5c(C)cccc5n4)nc3c2)c1 [Example 39, 5-Methyl-imidazo[1,2-a]pyridine-2-carboxylic acid {5-[3-(3-methoxy-propoxy)-phenyl]-1H-benzoimidazol-2-yl}-amide]
2.55	Cc1cccc2nc(C(=O)Nc3nc4cc(-c5cccc(OC6CCCCC6)c5)ccc4[nH]3)cn12 [Example 40, 5-Methyl-imidazo[1,2-a]pyridine-2-carboxylic acid [5-(3-cyclohexyloxy-phenyl)-1H-benzoimidazol-2-yl]-amide]
3.06	Cc1cccc2nc(C(=O)Nc3nc4cc(-c5cnn(C)c5)ccc4[nH]3)cn12 [Example 41, 5-Methyl-imidazo[1,2-a]pyridine-2-carboxylic acid [5-(1-methyl-1H-pyrazol-4-yl)-1H-benzoimidazol-2-yl]-amide]
4.37	Cc1cccc2nc(C(=O)Nc3nc4cc(-c5cccc(N6CCOCC6)c5)ccc4[nH]3)cn12 [Example 44, 5-Methyl-imidazo[1,2-a]pyridine-2-carboxylic acid [5-(3-morpholin-4-yl-phenyl)-1H-benzoimidazol-2-yl]-amide]
1.49	Cc1cccc2nc(C(=O)Nc3nc4cc(-c5cccc(F)c5)ccc4[nH]3)cn12 [Example 45, 5-Methyl-imidazo[1,2-a]pyridine-2-carboxylic acid [5-(3-fluoro-phenyl)-1H-benzoimidazol-2-yl]-amide]
0.4	Cc1cccn2cc(C(=O)Nc3nc4cc(-c5cc(F)cc(Cl)c5)ccc4[nH]3)nc12 [Example 57, 8-Methyl-imidazo[1,2-a]pyridine-2-carboxylic acid [5-(3-chloro-5-fluoro-phenyl)-1H-benzoimidazol-2-yl]-amide]
